Experimental data as given in US9079895B2, “Morpholino compounds, uses and methods” (University of Dundee, priority 2012, dated 2015).

Columns and labels:
Details in all cases: average of at least two experiments
5HT3 receptor = 5HT3 receptor (Homo sapiens (Human), UniProt P46098); assay: Secondary radioligand binding assay, 5HT3; design: key: “—” indicates that a binding interaction was not detected;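 further: radioligand competition binding on membranes from transfected cell lines, 1.5 h incubation at room temperature, filter-retained radioactivity measured by liquid scintillation counting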
5HT1e receptor = 5HT1e receptor (Homo sapiens (Human), UniProt P28566); assay: Secondary radioligand binding assay, 5HT1e; design: key: “—” indicates that a binding interaction was not detected;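 further: competition binding against a radioligand on membranes from transfected cell lines, 1.5 h at room temperature, bound radioactivity counted by liquid scintillation after filtration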
dopamine D1 receptor = dopamine D1 receptor (Homo sapiens (Human), UniProt P21728); assay: Secondary radioligand binding assay, D1; design: key to Ki D1: “—” indicates that a binding interaction was not detected
Description: (§1) 1. Secondary Radioligand Binding Assays
(§2) The detailed experimental protocols for the radioligand and functional receptor assays are available on the NIMH PDSP website at http://pdsp.med.unc.edu/UNC-CH %20Protocol %20Book.pdf.
(§3) Radioligand is diluted to five times the assay concentration (see Table 18) in Standard Binding Buffer. Typically, the assay concentration of radioligand is a value between one half the KD and the KD of a particular radioligand at its target. 50 μl aliquots of radioligand are dispensed into the wells of a 96-well plate containing 100 μl of Standard Binding Buffer. Then, duplicate 50 μl aliquots of the test and reference compound dilutions are added.
(§4) The 250 μl reactions are incubated at room temperature and shielded from light (to prevent photolysis of light-sensitive ligands) for 1.5 hours, then harvested by rapid filtration onto Whatman GF/B glass fiber filters pre-soaked with 0.3% polyethyleneimine using a 96-well Brandel harverster. Four rapid 500 μl washes are performed with chilled Standard Binding Buffer to reduce non-specific binding. Filters are placed in 6 ml scintillation tubes and allowed to dry overnight. The next day, 4 ml of EcoScint scintillation cocktail (National Diagnostics) are added to each tube. The tubes are capped, labeled, and counted by liquid scintillation counting. […] The filter mats are dried, then scintillant is melted onto the filters and the radioactivity retained on the filters is counted in a Microbeta scintillation counter.
(§5) Raw data (dpm) representing total radioligand binding (i.e. specific+non-specific binding) are plotted as a function of the logarithm of the molar concentration of the competitor (i.e. test or reference compound).
(§6) B. Dopamine Receptors: D1, D2, D3, D4, D5 Assay Buffers: Dopamine Binding Buffer (50 mM NaCl, 50 mM HEPES-HCl, 5 mM MgCl2, 0.5 mM EDTA, pH 7.4) Membrane Fraction Source: Transiently or stably transfected cell lines (e.g. HEK293, COS, CHO, NIH3T3)
(§7) The method is carried out in the manner described for the serotonin receptor assay above. Eleven dilutions (5× assay concentration) of the test and reference (see Table 19) compounds are prepared in Dopamine Binding Buffer by serial dilution, as previously described. Radioligand is diluted to five times the assay concentration (see Table 20) in Dopamine Binding Buffer.

dopamine D2 receptor = dopamine D2 receptor (Homo sapiens (Human), UniProt P14416); assay: Secondary radioligand binding assay, D2; design: key to Ki D2: “—” indicates that a binding interaction was not detected
Description: as §1, §2, §3, §4, §5, §6, §7

5HT1d receptor = 5HT1d receptor (Homo sapiens (Human), UniProt P28221); assay: Secondary radioligand binding assay, 5HT1d; design: key to Ki 5HT1d: “—” indicates that a binding interaction was not detected;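 further: competition binding against a radioligand on membranes from transfected cell lines, 1.5 h at room temperature, filter-retained radioactivity counted by liquid scintillation, total binding plotted versus log competitor concentration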
5HT4 receptor = 5HT4 receptor (Homo sapiens (Human), UniProt Q13639); assay: Secondary radioligand binding assay, 5HT4; design: key: “—” indicates that a binding interaction was not detected
Description: 1. Secondary Radioligand Binding Assays The detailed experimental protocols for the radioligand and functional receptor assays are available on the NIMH PDSP website at http://pdsp.med.unc.edu/UNC-CH %20Protocol %20Book.pdf. Assay Buffer: Standard Binding Buffer (50 mM Tris-HCl, 10 mM MgCl2, 1 mM EDTA, pH 7.4) Membrane Fraction Source: Transiently or stably transfected cell lines (e.g., HEK293, COS, CHO, NIH3T3) Protocol adapted from Roth et al. (1986), J. Pharmacol. Exp. Ther., 238(2): 480-485; and Roth et al. (1994), J. Pharmacol. Exp. Ther., 268(3): 1403-1410. […] A similar stock of a reference compound (positive control) is also prepared. […] Radioligand is diluted to five times the assay concentration (see Table 18) in Standard Binding Buffer. Typically, the assay concentration of radioligand is a value between one half the KD and the KD of a particular radioligand at its target. 50 μl aliquots of radioligand are dispensed into the wells of a 96-well plate containing 100 μl of Standard Binding Buffer. Then, duplicate 50 μl aliquots of the test and reference compound dilutions are added. Finally, crude membrane fractions of cells expressing recombinant target (prepared from 10 cm plates by harvesting PBS-rinsed monolayers, resuspending and lysing in chilled, hypotonic 50 mM Tris-HCl, pH 7.4, centrifuging at 20,000×g, decanting the supernatant and storing at −80° C.; typically, one 10 cm plate provides sufficient material for 24 wells), are resuspended in 3 ml of chilled Standard Binding Buffer and homogenized by several passages through a 26 gauge needle, then 50 μl are dispensed into each well. […] Four rapid 500 μl washes are performed with chilled Standard Binding Buffer to reduce non-specific binding. Filters are placed in 6 ml scintillation tubes and allowed to dry overnight. The next day, 4 ml of EcoScint scintillation cocktail (National Diagnostics) are added to each tube. The tubes are capped, labeled, and counted by liquid scintillation counting. For higher throughput assays, bound radioactivity is harvested onto 0.3% polyethyleneimine-treated, 96-well filter mats using a 96-well Filtermate harvester. The filter mats are dried, then scintillant is melted onto the filters and the radioactivity retained on the filters is counted in a Microbeta scintillation counter. Raw data (dpm) representing total radioligand binding (i.e. specific+non-specific binding) are plotted as a function of the logarithm of the molar concentration of the competitor (i.e. test or reference compound).

Chain of 5HT4 receptor (Q13639 whole entry): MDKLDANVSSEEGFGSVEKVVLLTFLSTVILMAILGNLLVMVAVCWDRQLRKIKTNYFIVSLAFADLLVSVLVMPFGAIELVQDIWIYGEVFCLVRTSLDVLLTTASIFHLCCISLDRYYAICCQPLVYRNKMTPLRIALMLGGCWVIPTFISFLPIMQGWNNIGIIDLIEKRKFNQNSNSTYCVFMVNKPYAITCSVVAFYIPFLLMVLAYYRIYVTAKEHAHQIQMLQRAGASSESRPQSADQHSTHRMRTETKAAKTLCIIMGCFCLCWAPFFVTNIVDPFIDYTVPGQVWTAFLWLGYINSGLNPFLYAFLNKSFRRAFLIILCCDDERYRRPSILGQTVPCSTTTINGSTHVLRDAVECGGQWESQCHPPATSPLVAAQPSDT
Chain of dopamine D1 receptor (P21728 whole entry): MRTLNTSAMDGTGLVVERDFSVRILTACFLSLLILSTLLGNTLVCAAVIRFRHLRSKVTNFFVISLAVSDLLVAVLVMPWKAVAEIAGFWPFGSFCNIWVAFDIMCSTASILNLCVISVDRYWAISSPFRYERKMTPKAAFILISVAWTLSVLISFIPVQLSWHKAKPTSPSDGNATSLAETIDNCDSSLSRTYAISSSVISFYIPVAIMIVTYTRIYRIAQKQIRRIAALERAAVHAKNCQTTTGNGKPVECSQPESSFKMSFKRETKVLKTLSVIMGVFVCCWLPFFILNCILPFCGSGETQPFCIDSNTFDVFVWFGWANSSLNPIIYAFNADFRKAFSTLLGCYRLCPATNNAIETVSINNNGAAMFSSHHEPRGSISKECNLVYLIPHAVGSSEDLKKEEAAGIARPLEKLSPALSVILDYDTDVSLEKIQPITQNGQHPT
Chain of 5HT1d receptor (P28221 whole entry): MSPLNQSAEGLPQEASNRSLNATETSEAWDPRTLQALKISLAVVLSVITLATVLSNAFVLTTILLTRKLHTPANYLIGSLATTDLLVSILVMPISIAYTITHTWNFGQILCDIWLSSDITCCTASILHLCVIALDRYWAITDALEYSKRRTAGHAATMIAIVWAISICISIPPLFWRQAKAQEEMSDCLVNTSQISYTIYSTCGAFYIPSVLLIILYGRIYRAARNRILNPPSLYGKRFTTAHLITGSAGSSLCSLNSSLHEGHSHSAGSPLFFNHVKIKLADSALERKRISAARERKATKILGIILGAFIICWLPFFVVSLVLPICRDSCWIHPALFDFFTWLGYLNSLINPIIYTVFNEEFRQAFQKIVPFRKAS
Chain of dopamine D2 receptor (P14416 whole entry, species assumed): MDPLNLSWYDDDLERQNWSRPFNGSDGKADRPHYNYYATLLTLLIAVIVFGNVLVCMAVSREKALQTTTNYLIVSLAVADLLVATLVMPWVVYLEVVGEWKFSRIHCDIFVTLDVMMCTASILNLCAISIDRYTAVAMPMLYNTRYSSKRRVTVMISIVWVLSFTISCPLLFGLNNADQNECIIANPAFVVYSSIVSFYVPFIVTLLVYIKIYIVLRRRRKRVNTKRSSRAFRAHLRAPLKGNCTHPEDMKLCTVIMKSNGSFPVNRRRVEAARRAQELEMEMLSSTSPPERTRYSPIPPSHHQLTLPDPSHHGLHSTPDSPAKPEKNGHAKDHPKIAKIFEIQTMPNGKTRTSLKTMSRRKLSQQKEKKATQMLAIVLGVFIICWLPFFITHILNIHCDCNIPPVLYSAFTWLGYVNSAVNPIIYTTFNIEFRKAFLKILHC
Chain of 5HT1e receptor (P28566 whole entry): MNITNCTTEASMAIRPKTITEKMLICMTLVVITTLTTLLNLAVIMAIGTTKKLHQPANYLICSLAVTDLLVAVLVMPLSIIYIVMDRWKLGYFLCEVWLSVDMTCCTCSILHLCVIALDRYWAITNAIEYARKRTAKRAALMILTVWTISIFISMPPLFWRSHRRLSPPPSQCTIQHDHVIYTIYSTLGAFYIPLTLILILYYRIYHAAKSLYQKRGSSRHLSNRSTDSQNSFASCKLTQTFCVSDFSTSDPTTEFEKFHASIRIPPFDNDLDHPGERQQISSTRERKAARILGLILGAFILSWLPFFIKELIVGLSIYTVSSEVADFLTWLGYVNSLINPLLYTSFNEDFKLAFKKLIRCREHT
Chain of 5HT3 receptor (P46098 24-478): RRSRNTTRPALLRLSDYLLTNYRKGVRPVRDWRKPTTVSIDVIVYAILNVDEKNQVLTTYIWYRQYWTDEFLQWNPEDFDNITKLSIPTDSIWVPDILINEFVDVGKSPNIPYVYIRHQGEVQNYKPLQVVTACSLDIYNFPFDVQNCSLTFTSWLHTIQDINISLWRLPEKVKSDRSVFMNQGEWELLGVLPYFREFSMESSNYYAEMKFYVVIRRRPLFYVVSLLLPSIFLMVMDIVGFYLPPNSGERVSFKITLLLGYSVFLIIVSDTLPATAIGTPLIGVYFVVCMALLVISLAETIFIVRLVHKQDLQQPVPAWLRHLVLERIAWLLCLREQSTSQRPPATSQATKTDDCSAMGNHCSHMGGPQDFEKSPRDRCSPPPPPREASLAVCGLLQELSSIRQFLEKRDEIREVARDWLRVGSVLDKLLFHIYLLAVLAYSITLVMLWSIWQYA

Row | Ki 5HT3 (5HT3 receptor) | Ki 5HT1e (5HT1e receptor) | Ki D1 (dopamine D1 receptor) | Ki D2 (dopamine D2 receptor) | Ki 5HT1d (5HT1d receptor) | Ki 5HT4 (5HT4 receptor) | Ki (dopamine D1 receptor) [µM] | SMILES
1 | — | — | — | — | — | — |  | CC1Cc2ccccc2N1C(=O)CN1CCO[C@@H](COc2ccncc2)C1 (stereo partly drawn) [Compound 68]
2 | — | — | — | — | — | — |  | CC1Cc2ccccc2N1C(=O)CN1CCO[C@@H](COc2ccccn2)C1 (stereo partly drawn) [Compound 69]
3 | — | — |  | — | — | — | > 10 | Cc1ccnc(OC[C@H]2CN(CC(=O)N3c4ccccc4CC3C)CCO2)c1 (stereo partly drawn) [Compound 70]
